Reference: patent US20240360177A1, “PEPTIDES WITH ANTIMICROBIAL ACTIVITIES” (priority 2021, published 2024)
Values after ≈ are worked out from the molar mass of the structure shown. Where two headings read alike, the source gives them in different places. Non-standard residues stand in square brackets, D forms with d. Residues, ends and D or L forms follow the SMILES beside them. hLeu = CC(C)CC[C@H](N)C(=O)O; AEA = NCCOCC(=O)O; Ava = NCCCCC(=O)O

Compound	MIC C. glabrata (C. glabrata; 24 h) [µg/mL]	MIC C. tropicalis (C. tropicalis; 24 h) [µg/mL]	MIC C. dubliniensis (C. dubliniensis; 24 h) [µg/mL]	MIC C. albicans (C. albicans; 24 h) [µg/mL]	MIC C. auris (C. auris; 24 h) [µg/mL]	MIC C. krusei (C. krusei; 24 h) [µg/mL]	MIC C. parapsilosis (C. parapsilosis; 24 h) [µg/mL]	MIC C. glabrata (C. glabrata; ATCC 90030, 24 hrs) [µg/mL]	MIC C. tropicalis (C. tropicalis; ATCC 90874, 24 hrs) [µg/mL]	MIC C. dubliniensis (C. dubliniensis; ATCC MYA-578, 24 hrs) [µg/mL]	MIC C. albicans (C. albicans; ATCC 90028 or 90029, 24 hrs) [µg/mL]	MIC C. auris (C. auris; CDC 386, 24 hrs) [µg/mL]	MIC C. krusei (C. krusei; MMX 7135, 24 hrs) [µg/mL]	MIC C. parapsilosis (C. parapsilosis; ATCC 22019, 24 hrs) [µg/mL]
N=C(N)NCCC[C@@H](N)C(=O)N[C@@H](CCCNC(=N)N)C(=O)N[C@H](CCCNC(=N)N)C(=O)NCCCCC(=O)N[C@H](CCCNC(=N)N)C(=O)N[C@@H](CCCNC(=N)N)C(=O)N[C@H](CCCNC(=N)N)C(=O)NCCCCC(=O)N[C@H](CCCNC(=N)N)C(=O)N[C@@H](CCCNC(=N)N)C(=O)N[C@H](CCCNC(=N)N)C(=O)N[C@@H](CCCNC(=N)N)C(=O)NCCCCC(=O)N[C@H](CCCNC(=N)N)C(=O)N[C@@H](CCCNC(=N)N)C(=O)N[C@H](CCCNC(=N)N)C(=O)N[C@@H](CCCNC(=N)N)C(=O)O [SEQ ID NO: 19, rRr-(Ava)-rRr-(Ava)-rRrR-(Ava)-rRrR] (H-[dR]R[dR][Ava][dR]R[dR][Ava][dR]R[dR]R[Ava][dR]R[dR]R-OH)	0.5 (≈ 0.2 µM)	0.5 (≈ 0.2 µM)	0.5 (≈ 0.2 µM)	0.5 (≈ 0.2 µM)	2 (≈ 0.799 µM)	1 (≈ 0.4 µM)	0.25 (≈ 0.0999 µM)	–	–	–	–	–	–	–
N=C(N)NCCC[C@@H](N)C(=O)N[C@@H](CCCNC(=N)N)C(=O)N[C@H](CCCNC(=N)N)C(=O)NCCCCC(=O)N[C@H](CCCNC(=N)N)C(=O)N[C@@H](CCCNC(=N)N)C(=O)N[C@H](CCCNC(=N)N)C(=O)NCCCCC(=O)N[C@H](CCCNC(=N)N)C(=O)N[C@@H](CCCNC(=N)N)C(=O)N[C@H](CCCNC(=N)N)C(=O)N[C@@H](CCCNC(=N)N)C(=O)NCCCCC(=O)N[C@H](CCCNC(=N)N)C(=O)N[C@@H](CCCNC(=N)N)C(=O)N[C@H](CCCNC(=N)N)C(=O)N[C@@H](CCCNC(=N)N)C(=O)N[C@@H](CCC(=O)O)C(=O)O [SEQ ID NO: 20, rRr-(Ava)-rRr-(Ava)-rRrR-(Ava)-rRrR-Glu] (H-[dR]R[dR][Ava][dR]R[dR][Ava][dR]R[dR]R[Ava][dR]R[dR]RE-OH)	–	–	–	–	–	–	–	1 (≈ 0.38 µM)	0.5 (≈ 0.19 µM)	0.5 (≈ 0.19 µM)	0.5 (≈ 0.19 µM)	16 (≈ 6.08 µM)	2 (≈ 0.76 µM)	0.25 (≈ 0.095 µM)
N=C(N)NCCC[C@@H](N)C(=O)N[C@@H](CCCNC(=N)N)C(=O)N[C@H](CCCNC(=N)N)C(=O)N[C@@H](CCCNC(=N)N)C(=O)NCCCCC(=O)N[C@H](CCCNC(=N)N)C(=O)N[C@@H](CCCNC(=N)N)C(=O)N[C@H](CCCNC(=N)N)C(=O)N[C@@H](CCCNC(=N)N)C(=O)NCCCCC(=O)N[C@H](CCCNC(=N)N)C(=O)N[C@@H](CCCNC(=N)N)C(=O)N[C@H](CCCNC(=N)N)C(=O)NCCCCC(=O)N[C@H](CCCNC(=N)N)C(=O)N[C@@H](CCCNC(=N)N)C(=O)N[C@H](CCCNC(=N)N)C(N)=O [SEQ ID NO: 21, rRrR-(Ava)-rRrR-(Ava)-rRr-(Ava)-rRr-NH2] (H-[dR]R[dR]R[Ava][dR]R[dR]R[Ava][dR]R[dR][Ava][dR]R[dR]-NH2)	0.5 (≈ 0.2 µM)	0.5 (≈ 0.2 µM)	0.5 (≈ 0.2 µM)	0.5 (≈ 0.2 µM)	0.5 (≈ 0.2 µM)	0.5 (≈ 0.2 µM)	0.25 (≈ 0.1 µM)	–	–	–	–	–	–	–
N=C(N)NCCC[C@@H](N)C(=O)N[C@@H](CCCNC(=N)N)C(=O)N[C@H](CCCNC(=N)N)C(=O)NCCCCC(=O)N[C@H](CCCNC(=N)N)C(=O)N[C@@H](CCCNC(=N)N)C(=O)N[C@H](CCCNC(=N)N)C(=O)NCCCCC(=O)N[C@H](CCCNC(=N)N)C(=O)N[C@@H](CCCNC(=N)N)C(=O)N[C@H](CCCNC(=N)N)C(=O)N[C@@H](CCCNC(=N)N)C(=O)NCCNCC(=O)N[C@H](CCCNC(=N)N)C(=O)N[C@@H](CCCNC(=N)N)C(=O)N[C@H](CCCNC(=N)N)C(=O)N[C@@H](CCCNC(=N)N)C(N)=O [SEQ ID NO: 43, rRr-(Ava)-rRr-(Ava)-rRrR-(Aeg)-rRrR-NH2]	1 (≈ 0.4 µM)	0.5 (≈ 0.2 µM)	0.5 (≈ 0.2 µM)	1 (≈ 0.4 µM)	–	–	0.5 (≈ 0.2 µM)	–	–	–	–	–	–	–
N=C(N)NCCC[C@@H](N)C(=O)N[C@@H](CCCNC(=N)N)C(=O)N[C@H](CCCNC(=N)N)C(=O)NCCOCC(=O)N[C@H](CCCNC(=N)N)C(=O)N[C@@H](CCCNC(=N)N)C(=O)N[C@H](CCCNC(=N)N)C(=O)NCCCCC(=O)N[C@H](CCCNC(=N)N)C(=O)N[C@@H](CCCNC(=N)N)C(=O)N[C@H](CCCNC(=N)N)C(=O)N[C@@H](CCCNC(=N)N)C(=O)NCCCCC(=O)N[C@H](CCCNC(=N)N)C(=O)N[C@@H](CCCNC(=N)N)C(=O)N[C@H](CCCNC(=N)N)C(=O)N[C@@H](CCCNC(=N)N)C(N)=O [SEQ ID NO: 47, rRr-(Aea)-rRr-(Ava)-rRrR-(Ava)-rRrR-NH2] (H-[dR]R[dR][AEA][dR]R[dR][Ava][dR]R[dR]R[Ava][dR]R[dR]R-NH2)	1 (≈ 0.4 µM)	0.5 (≈ 0.2 µM)	0.5 (≈ 0.2 µM)	1 (≈ 0.4 µM)	–	–	0.5 (≈ 0.2 µM)	–	–	–	–	–	–	–
N=C(N)NCCC[C@@H](N)C(=O)N[C@@H](CCCNC(=N)N)C(=O)N[C@H](CCCNC(=N)N)C(=O)NCCCCC(=O)N[C@H](CCCNC(=N)N)C(=O)N[C@@H](CCCNC(=N)N)C(=O)N[C@H](CCCNC(=N)N)C(=O)NCCOCC(=O)N[C@H](CCCNC(=N)N)C(=O)N[C@@H](CCCNC(=N)N)C(=O)N[C@H](CCCNC(=N)N)C(=O)N[C@@H](CCCNC(=N)N)C(=O)NCCCCC(=O)N[C@H](CCCNC(=N)N)C(=O)N[C@@H](CCCNC(=N)N)C(=O)N[C@H](CCCNC(=N)N)C(=O)N[C@@H](CCCNC(=N)N)C(N)=O [SEQ ID NO: 48, rRr-(Ava)-rRr-(Aea)-rRrR-(Ava)-rRrR-NH2] (H-[dR]R[dR][Ava][dR]R[dR][AEA][dR]R[dR]R[Ava][dR]R[dR]R-NH2)	1 (≈ 0.4 µM)	0.5 (≈ 0.2 µM)	0.5 (≈ 0.2 µM)	0.5 (≈ 0.2 µM)	–	–	0.5 (≈ 0.2 µM)	–	–	–	–	–	–	–
N=C(N)NCCC[C@@H](N)C(=O)N[C@@H](CCCNC(=N)N)C(=O)N[C@H](CCCNC(=N)N)C(=O)NCCCCC(=O)N[C@H](CCCNC(=N)N)C(=O)N[C@@H](CCCNC(=N)N)C(=O)N[C@H](CCCNC(=N)N)C(=O)NCCCCC(=O)N[C@H](CCCNC(=N)N)C(=O)N[C@@H](CCCNC(=N)N)C(=O)N[C@H](CCCNC(=N)N)C(=O)N[C@@H](CCCNC(=N)N)C(=O)NCCOCC(=O)N[C@H](CCCNC(=N)N)C(=O)N[C@@H](CCCNC(=N)N)C(=O)N[C@H](CCCNC(=N)N)C(=O)N[C@@H](CCCNC(=N)N)C(N)=O [SEQ ID NO: 49, rRr-(Ava)-rRr-(Ava)-rRrR-(Aea)-rRrR-NH2] (H-[dR]R[dR][Ava][dR]R[dR][Ava][dR]R[dR]R[AEA][dR]R[dR]R-NH2)	1 (≈ 0.4 µM)	0.5 (≈ 0.2 µM)	0.5 (≈ 0.2 µM)	1 (≈ 0.4 µM)	–	–	0.5 (≈ 0.2 µM)	–	–	–	–	–	–	–
N=C(N)NCCC[C@@H](N)C(=O)N[C@@H](CCCNC(=N)N)C(=O)N[C@H](CCCNC(=N)N)C(=O)NCCCCC(=O)N[C@H](CCCNC(=N)N)C(=O)N[C@@H](CCCNC(=N)N)C(=O)N[C@H](CCCNC(=N)N)C(=O)NCCOCC(=O)N[C@H](CCCNC(=N)N)C(=O)N[C@@H](CCCNC(=N)N)C(=O)N[C@H](CCCNC(=N)N)C(=O)N[C@@H](CCCNC(=N)N)C(=O)NCCOCC(=O)N[C@H](CCCNC(=N)N)C(=O)N[C@@H](CCCNC(=N)N)C(=O)N[C@H](CCCNC(=N)N)C(=O)N[C@@H](CCCNC(=N)N)C(N)=O [SEQ ID NO: 51, rRr-(Ava)-rRr-(Aea)-rRrR-(Aea)-rRrR-NH2] (H-[dR]R[dR][Ava][dR]R[dR][AEA][dR]R[dR]R[AEA][dR]R[dR]R-NH2)	1 (≈ 0.399 µM)	0.5 (≈ 0.2 µM)	0.25 (≈ 0.0998 µM)	0.5 (≈ 0.2 µM)	–	–	0.25 (≈ 0.0998 µM)	–	–	–	–	–	–	–
CC(C)CC[C@H](NC(=O)[C@@H](CCCNC(=N)N)NC(=O)[C@H](CCCNC(=N)N)NC(=O)[C@@H](CCCNC(=N)N)NC(=O)[C@@H]1CCCN1C(=O)[C@H](CCCNC(=N)N)NC(=O)[C@@H](CCCNC(=N)N)NC(=O)[C@H](CCCNC(=N)N)NC(=O)[C@@H](CCCNC(=N)N)NC(=O)[C@@H]1CCCN1C(=O)[C@@H](CCCNC(=N)N)NC(=O)[C@H](CCCNC(=N)N)NC(=O)[C@@H](CCCNC(=N)N)NC(=O)[C@@H]1CCCN1C(=O)[C@@H](CCCNC(=N)N)NC(=O)[C@H](CCCNC(=N)N)NC(=O)[C@H](N)CCCNC(=N)N)C(N)=O [SEQ ID NO: 93, rRr-P-rRr-P-rRrR-P-rRr(hLeu)-NH2] (H-[dR]R[dR]P[dR]R[dR]P[dR]R[dR]RP[dR]R[dR][hLeu]-NH2)	1 (≈ 0.406 µM)	0.5 (≈ 0.203 µM)	0.5 (≈ 0.203 µM)	0.5 (≈ 0.203 µM)	–	–	1 (≈ 0.406 µM)	–	–	–	–	–	–	–
CC(C)CC[C@H](NC(=O)[C@@H](CCCNC(=N)N)NC(=O)[C@H](CCCNC(=N)N)NC(=O)[C@@H](CCCNC(=N)N)NC(=O)[C@@H]1CCCN1C(=O)[C@H](CCCNC(=N)N)NC(=O)[C@@H](CCCNC(=N)N)NC(=O)[C@H](CCCNC(=N)N)NC(=O)[C@@H](CCCNC(=N)N)NC(=O)[C@@H]1CCCN1C(=O)[C@@H](CCCNC(=N)N)NC(=O)[C@H](CCCNC(=N)N)NC(=O)[C@@H](CCCNC(=N)N)NC(=O)[C@@H]1CCCN1C(=O)[C@@H](CCCNC(=N)N)NC(=O)[C@H](CCCNC(=N)N)NC(=O)[C@@H](N)CCC(C)C)C(N)=O [SEQ ID NO: 95, (hLeu)Rr-P-rRr-P-rRrR-P-rRr(hLeu)-NH2] (H-[hLeu]R[dR]P[dR]R[dR]P[dR]R[dR]RP[dR]R[dR][hLeu]-NH2)	0.5 (≈ 0.205 µM)	1 (≈ 0.41 µM)	0.5 (≈ 0.205 µM)	1 (≈ 0.41 µM)	–	–	1 (≈ 0.41 µM)	–	–	–	–	–	–	–
rR-(Apg)-rR-(Apg)-rRr-(Apg)-rRr-NH2 [SEQ ID NO: 39]	8	0.25	0.12	0.25	–	–	0.12	–	–	–	–	–	–	–
